Results as given in patent US20260191933A1, “PHARMACEUTICAL COMBINATIONS AND USES THEREOF” (The University of Melbourne, priority 2022, published 2026).

Columns and labels:
[1] = tested on: 12-week HFHS fed obese mice; test: I.C.V. fluorosamine in obese mice: glucose tolerance and hyperinsulinemic-euglycemic clamps; format: in vivo, C57BL/6J mice
Protocol: For hyperinsulinemic-euglycemic clamps, mice were anesthetised under isoflurane and the right jugular vein was catheterised for infusions, as described previously by Dodd et al., 2018. Catheters were attached to an implant button (BMSW25, RWD Life Sciences, Shenzhen, China). Implant buttons were capped allowing for group mousing of mice and catheters were kept patent by flushing daily with 40 μL saline containing 200 units/mL heparin. On the day of the experiment, food was removed at 7:00 A.M. After 3.5 h fasting, a primed (1 min, 1.25 uCi/min) continuous infusion (0.05 uCi/min) of [3-3H]glucose (NET331A001MC, PerkinElmer, MA) was administered to measure whole-body glucose turnover, as described previously by Dodd et al., 2018. […]
Metabolic measurements were undertaken in the Melbourne Mouse Metabolic Phenotyping Platform (The University of Melbourne, Australia). […] The areas under glucose excursion curves were determined and expressed as mmol/l×min. Fasted (12 h fast) plasma insulin or glucose levels were determined using a Rat/Mouse Insulin ELISA (EZRMI-13K, Merck Millipore, CA) or an Accu-Check glucometer respectively. The HOMA-IR was calculated using the equation [(glucose×insulin)/405]. Adiposity was measured using TD-NMR minispec (Bruker Optics Inc., Billerica, MA). […]

[2] = tested on: insulin induced p-AKT signalling in the ARC; test: I.C.V. fluorosamine: insulin-induced p-AKT in the ARC; format: in vivo, C57BL/6J mice; conditions: following 10 days I.C.V. treatment
Protocol: (§1) Mice were injected intraperitoneally with vehicle (PBS) or insulin (3 mU/g, i.p., Actrapid, Nova Nordisk, Denmark) and mice were transcardially perfused (as described above) 15 min with 10% neutral buffered formalin. The brains were post-fixed for 16 h on a rocking platform at RT and then kept for two days in 30% sucrose in PBS to cryoprotect the tissue, before freezing on dry ice. 30 μm sections were cut in the coronal plane throughout the entire rostral-caudal extent of the hypothalamus. Sections were pre-treated for 10 mins in 0.3% glycine, washed in PBS-T and incubated for 10 min in 0.03% SDS. Sections were then blocked in 5% blocking buffer for 1 h at RT and incubated for 48 h with rabbit anti-p-AKT (Ser-473) (1:300; #4060, Cell Signaling Technology, Beverly, MA) in 1% blocking buffer. Sections were then incubated in 5% blocking buffer containing either goat anti-rabbit Alexa Fluor 647 (ab150083, Abcam, Cambridge, UK) or biotinylated goat anti-rabbit (BA-1000, Vector Laboratories, CA, no sodium azide in blocking buffer). […]

[3] = tested on: 12-week-HFHS-diet-fed obese mice; test: Intranasal PZ6005 in obese mice: I.P. GTT, ITT, fasting glucose; format: in vivo, C57BL/6J mice
Protocol: Metabolic measurements were undertaken in the Melbourne Mouse Metabolic Phenotyping Platform (The University of Melbourne, Australia). Glucose tolerance tests were performed on 6 h fasted conscious mice respectively by injecting D-glucose (2 mg/g of lean body mass and 1 mg/g lean mass for db/db and HFHS+STZ mice) into the peritoneal cavity and measuring glucose in tail blood immediately before and at 15, 30, 45, 60, 90 and 120 min after injection using an Accu-Check glucometer (Roche, Germany). The areas under glucose excursion curves were determined and expressed as mmol/l×min. Fasted (12 h fast) plasma insulin or glucose levels were determined using a Rat/Mouse Insulin ELISA (EZRMI-13K, Merck Millipore, CA) or an Accu-Check glucometer respectively. The HOMA-IR was calculated using the equation [(glucose×insulin)/405]. Adiposity was measured using TD-NMR minispec (Bruker Optics Inc., Billerica, MA).

ARC CSPG-ECM = test: I.C.V. PZ6005 and/or S.C. liraglutide, 28-day treatment: ARC CSPG-ECM (WFA); format: in vivo, C57BL/6j mice; conditions: PZ6005 100 μg/animal I.C.V. every other day first 14 days; liraglutide 200 μg/kg/day S.C. 28 days
Protocol: All image quantification was performed in Image J (NIH) software (NIH, MA). Raw images underwent background subtraction using a rolling ball algorithm to minimize background and any potential variance in tissue autofluorescence. To quantify area and intensity of the CSPG-ECM within each brain region (ARC, VMH or RSG cortex) images were thresholded and binarized to create a region of interest (ROI) mask of only the CSPG-ECM. For each brain area, CSPG-ECM ROI area (μm^2) and intensity (sum of all pixel intensities within the ROI) was calculated. This process was automated to minimise bias and to account for differences in brain nuclei size across multiple images. Brain nuclei were defined in accordance with the Paxinos and Franklin mouse brain atlas (http://labs.gaidi.ca/mouse-brain-atlas/). The area and intensity of CSPG-ECM within each region was normalised to the respective control.

[4] = tested on: ARC insulin receptor signalling (pAKT); test: I.C.V. PZ6005 and/or S.C. liraglutide: ARC pAKT +ve. cells after insulin; format: in vivo, C57BL/6j mice; conditions: after 28-day treatment; compared with liraglutide alone group
Protocol: as §1

[5] = tested on: 12-week HFHS fed obese mice; test: Example 21: 14-day treatment and off-treatment phase, weight rebound, body composition, metabolic rate, food intake; format: in vivo, C57BL/6J male mice
Protocol: To induce diet-induced obesity in adulthood, the mice were ad libitum access to water and high-fat-high-sugar (HFHS) diet (43% of total energy from fat, SF04-001, Speciality Feeds, Australia) starting at eight weeks of age for 12 weeks. Aged-matched chow-fed C57BL/6J male mice were ad libitum access to standard chow diet throughout full duration of the experiment.
Mice adiposity and lean mass were measured via the TD-NMR minispec (Bruker Optics Inc., USA) acquiring EchoMRI-900 Body Composition Analyser (EchoMRI LLC, USA). Interscapular brown adipose tissue, inguinal and epidermal white adipose tissues and the liver were weighed to determine tissue-specific adiposity.
At day 15, treatments were discontinued however all groups continued to receive ad libitum access to HFHS diet to assess the rebound following treatment cessation.

## CC(=O)NC1C(OC(C)=O)OC(COC(C)=O)[C@@H](F)C1OC(C)=O (some centres unmarked) [PZ6005, per-O-acetylated-4-F-N-acetylglucosamine]
[1]; hyperinsulinemic-euglycemic clamps, weight matched obese mice, daily for 3 days I.C.V.
  whole-body insulin sensitivity (GIR): enhancement
[1]; obese mice, I.C.V. for 10 days
  glucose tolerance: improved glucose tolerance
[2]
  insulin induced p-AKT signalling in the ARC: enhanced
[3]; both doses of intranasal treatment
  fasting (12 hrs) glucose level: Reduction
[3]; intranasal 1 or 5 mg/animal/day, 4 hrs fasting
  insulin sensitivity (I.P. ITT): enhanced insulin sensitivity
[3]; intranasal 1 or 5 mg/animal/day, 6 hrs fasting, vs control littermates
  glucose tolerance (I.P. GTT): better glucose tolerance
ARC CSPG-ECM
  ARC CSPG-ECM intensity reduced by, compared with the mice receiving liraglutide: 22.65±7.851%
  CSPG-ECM area lower than liraglutide group: 31.56±3.73%
[4]
  ARC pAKT +ve. cells: more ARC pAKT +ve. cells
[5]; 14 days after terminating treatments, compared to vehicle and liraglutide alone
  baseline fat mass, without affecting lean mass: significant decrease
[5]; day 14, PZ6005 100 μg/animal I.C.V. every second day, liraglutide 200 μg/kg daily
  mean weight loss from baseline (day 0): 15.08±1.45%
[5]; end of experiment, vs other littermates
  liver mass: lower liver mass
[5]; off-treatment phase
  day of return to baseline body weight: 30.00 ± 1.72 days
[5]; treatment phase, without effects on ambulatory activity
  oxygen consumption and whole-body energy expenditure: elevated
